Measured values as given in the supplement of paper PMC11451515.

Tested on: SEM cells
Assay: cell viability relative to DMSO control; higher = less cytotoxic
Conditions: 48 h
How it was run: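 In 1536-well plates, 5 μl of leukemia cells were seeded per well: 500 cells/well for NOMO1 or SEM and 1000 cells/well for P12-Ichikawa. Each line had first been adapted for at least four passages in each medium. Library compounds in DMSO were pin-dosed at 11 threefold concentrations between 47 μM and 0.79 nM, and CellTiter-Glo One luminescence was read after 48 h at 37°C. Viability is a per-plate percentage relative to DMSO wells, with cell-free wells as background.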

[1] = HPLM + 10% dialyzed FBS, 0.000781 µM
[2] = HPLM + 10% dialyzed FBS, 0.00234 µM
[3] = HPLM + 10% dialyzed FBS, 0.00702 µM
[4] = HPLM + 10% dialyzed FBS, 0.0211 µM
[5] = HPLM + 10% dialyzed FBS, 0.0632 µM
[6] = HPLM + 10% dialyzed FBS, 0.19 µM
[7] = HPLM + 10% dialyzed FBS, 0.569 µM
[8] = HPLM + 10% dialyzed FBS, 1.71 µM
[9] = HPLM + 10% dialyzed FBS, 5.12 µM
[10] = HPLM + 10% dialyzed FBS, 15.4 µM
[11] = HPLM + 10% dialyzed FBS, 46.1 µM
[12] = RPMI 5 mM glucose + 10% FBS, 0.000781 µM
[13] = RPMI 5 mM glucose + 10% FBS, 0.00234 µM
[14] = RPMI 5 mM glucose + 10% FBS, 0.00702 µM
[15] = RPMI 5 mM glucose + 10% FBS, 0.0211 µM
[16] = RPMI 5 mM glucose + 10% FBS, 0.0632 µM
[17] = RPMI 5 mM glucose + 10% FBS, 0.19 µM
[18] = RPMI 5 mM glucose + 10% FBS, 0.569 µM
[19] = RPMI 5 mM glucose + 10% FBS, 1.71 µM
[20] = RPMI 5 mM glucose + 10% FBS, 5.12 µM
[21] = RPMI 5 mM glucose + 10% FBS, 15.4 µM
[22] = RPMI 5 mM glucose + 10% FBS, 46.1 µM
[23] = RPMI 5 mM glucose + 10% dialyzed FBS, 0.000781 µM
[24] = RPMI 5 mM glucose + 10% dialyzed FBS, 0.00234 µM
[25] = RPMI 5 mM glucose + 10% dialyzed FBS, 0.00702 µM
[26] = RPMI 5 mM glucose + 10% dialyzed FBS, 0.0211 µM
[27] = RPMI 5 mM glucose + 10% dialyzed FBS, 0.0632 µM
[28] = RPMI 5 mM glucose + 10% dialyzed FBS, 0.19 µM
[29] = RPMI 5 mM glucose + 10% dialyzed FBS, 0.569 µM
[30] = RPMI 5 mM glucose + 10% dialyzed FBS, 1.71 µM
[31] = RPMI 5 mM glucose + 10% dialyzed FBS, 5.12 µM
[32] = RPMI 5 mM glucose + 10% dialyzed FBS, 15.4 µM
[33] = RPMI 5 mM glucose + 10% dialyzed FBS, 46.1 µM

Compound	cell viability [1] [%]	cell viability [2] [%]	cell viability [3] [%]	cell viability [4] [%]	cell viability [5] [%]	cell viability [6] [%]	cell viability [7] [%]	cell viability [8] [%]	cell viability [9] [%]	cell viability [10] [%]	cell viability [11] [%]	cell viability [12] [%]	cell viability [13] [%]	cell viability [14] [%]	cell viability [15] [%]	cell viability [16] [%]	cell viability [17] [%]	cell viability [18] [%]	cell viability [19] [%]	cell viability [20] [%]	cell viability [21] [%]	cell viability [22] [%]	cell viability [23] [%]	cell viability [24] [%]	cell viability [25] [%]	cell viability [26] [%]	cell viability [27] [%]	cell viability [28] [%]	cell viability [29] [%]	cell viability [30] [%]	cell viability [31] [%]	cell viability [32] [%]	cell viability [33] [%]
COc1ccc(CCN2CCN(CCCc3ccccc3)CC2)cc1OC	100	115	117	133	133	138	134	126	125	127	127	108	125	112	124	133	132	127	129	133	125	109	115	113	132	134	141	162	150	148	141	139	122
CN[C@H](CC(C)C)C(=O)N[C@H]1C(=O)N[C@@H](CC(N)=O)C(=O)N[C@H]2C(=O)N[C@H]3C(=O)N[C@H](C(=O)N[C@H](C(=O)O)c4cc(O)cc(O)c4-c4cc3ccc4O)[C@H](O)c3ccc(c(Cl)c3)Oc3cc2cc(c3O[C@@H]2O[C@H](CO)[C@@H](O)[C@H](O)[C@H]2O[C@H]2C[C@](C)(N)[C@H](O)[C@H](C)O2)Oc2ccc(cc2Cl)[C@H]1O	94.2	94.3	124	112	125	111	128	89	126	129	122	127	114	120	130	144	143	148	126	138	131	142	112	126	125	138	126	114	131	95.9	138	118	110
O=C1CSC(=O)N1C(CCc1ccncc1)COc1ccc(-c2cccc([N+](=O)[O-])c2)cc1 (centres undefined)	119	123	109	115	118	92.4	114	95.6	111	112	79.5	123	118	132	118	112	117	117	109	98.6	82.7	48.9	105	131	105	123	135	116	128	117	106	116	75.1
